pIC50: −log10 of the molar value. Values joined by “and” are separate entries in the source; they are usually repeats but may differ in a detail not shown here. Equal entries are not always repeated.
What was measured:
MDA-MB-231 cells [1] = test: High-content epigenetic inhibitor screen, quantification of living cells; type: cell-based, human; details: 3 μM, 72 h
Source text: (§1) HeLa, MCF-7 and MDA-MB-231 cell lines were purchased from the American Type Culture Collection. MCF-10A, T-47D, PANC-1, A549, HCT-15, Caco-2, SMMC-7721, SH-SY5Y, HUVEC and PC-3 cell lines were obtained from the Chinese Academy of Medical Sciences. MEF was isolated from pregnant mice at 14‒16 days of pregnancy. Primary breast cancer cells were isolated from breast cancer patients. All media including Dulbecco Modified Eagle Medium (DMEM), RPMI 1640 Medium and DMEM/Nutrient Mixture F-12 were supplemented with 10% fetal bovine serum (FBS), 100 units/mL penicillin, and […] streptomycin (Gibco, Waltham, MA, USA). Cells were cultured in a humidified incubator equilibrated with 5% CO2 at 37 °C. Cells were treated for 24-72 h in adherent conditions with compounds from an epigenetic small molecule inhibitor library (L1200, Topscience, Shanghai, China).
(§2) Statistical analyses of all data were performed using GraphPad Prism (version 8.0, Graph Pad Software Inc., San Diego, CA, USA). All the data were analyzed by Student's t-test or one-way ANOVA. The Z-Score was chosen to evaluate the results and experimental deviation. Quantitative data are presented as the mean ± SD. The asterisk (*) denotes statistically significant difference (P < 0.05). IC50 was calculated using a four-parameter fit with variable slope in GraphPad Prism.
To identify potential anti-tumor inhibitors, we screened an epigenetic small molecule inhibitor library for anti-tumor activity in breast cancer cells. […] The selection strategy mainly comprised three stages, in which different concentrations (high to low) of inhibitors screened with a high-content analysis instrument were identified using cancer cell lines in a 96-well plate format (Figure 1A). For the first step, we treated cells with a high concentration of compounds to exclude compounds ineffective in killing cancer cells. MDA-MB-231 cells, a human breast cancer cell line, were treated with 167 epigenetic compounds (30 μM each) for 48 h, and then analyzed by high-content analysis, where changes in cell morphology relative to the control (dimethyl sulfoxide, DMSO) would indicate modulation of cancer cells by compound treatment. […] At the second step, we treated the cells with the 60 compounds at a median concentration (3 μM) for 72 h to screen for inhibitors that can kill cancer cells with high efficiency.

MDA-MB-231 cells [2] = test: Intracellular calcium measurement (Fluo-4-AM); type: cell-based, human; details: thrombin stimulation, different concentrations of the pan-HDAC inhibitors
Method: After treatment, the cells were digested and seeded in 96-well black plates (Corning Costar, Cambridge, MA, USA) and cultured for 20 h. For measurement of [Ca^2+]i, the cells were labeled with Fluo-4-AM in serum-free medium for half an hour at room temperature. After washing with Dulbecco's Phosphate Buffered Saline (D-PBS), cells were overlaid in Hank's balanced salt solution (5.4 mM KCl, 1 mM MgCl2, 20 mM hydroxyethyl piperazineethanesulfonic acid (HEPES), 120 mM NaCl, 10 mM glucose, 0.2 mM Ethylenebis(oxyethylenenitrilo)tetraacetic acid (EGTA)). Continuous fluorescence intensity was detected after thrombin was added as a calcium agonist by an automated sampler. Response over baseline was assessed as a relative measure of [Ca^2+]i.
As previously stated, studies have shown that the Ca^2+ signals can modulate cancer progression by regulating migration, proliferation, cell stress, and apoptosis.

HUVEC = test: CCK8 assay IC50; type: cell-based, human; details: normal cells, 72 h
Method: (§3) Cell viability was then detected using a CCK8 assay (MedChemExpress, USA) according to the manufacturer's instructions.
as §2

MDA-MB-231 = test: CCK8 assay IC50; type: cell-based, human; details: MDA-MB-231, breast cancer, 72 h, CCK8
Method: as §3, §2

MEF = test: CCK8 assay IC50; type: cell-based, mouse; details: normal cells, 72 h
Source text: as §1, §3
as §2, with “The asterisk (*) denotes statistically significant difference (P < 0.05).” left out

[3] = tested on: Primary breast tumor cells; test: CCK8 assay IC50; type: cell-based, human; details: breast cancer, 72 h
Source text: as §1, §3
as §2, with “The asterisk (*) denotes statistically significant difference (P < 0.05).” left out

A549 = test: CCK8 assay IC50; type: cell-based; details: A549, lung cancer, 72 h
Method: as §3, §2

Caco-2 = test: CCK8 assay IC50; type: cell-based; details: Caco-2, colon cancer, 72 h
Method: as §3, §2

HCT-15 = test: CCK8 assay IC50; type: cell-based; details: HCT-15, colon cancer, 72 h
Method: as §3, §2

HeLa = test: CCK8 assay IC50; type: cell-based; details: cervical cancer, 72 h
Method: as §3, §2

MCF-7 = test: CCK8 assay IC50; type: cell-based; details: MCF-7, breast cancer, 72 h, CCK8
Method: as §3, §2

PANC-1 = test: CCK8 assay IC50; type: cell-based; details: PANC-1, pancreatic cancer, 72 h
Method: as §3, §2

PC-3 = test: CCK8 assay IC50; type: cell-based; details: PC-3, prostatic cancer, 72 h
Method: as §3, §2

SH-SY5Y = test: CCK8 assay IC50; type: cell-based; details: neuroblastoma, 72 h
Method: as §3, §2

SMMC-7721 = test: CCK8 assay IC50; type: cell-based; details: SMMC-7721, liver cancer, 72 h
Method: as §3, §2

T-47D = test: CCK8 assay IC50; type: cell-based; details: breast cancer, 72 h
Method: as §3, §2

With `O=C(CCCCCCC(=O)Nc1ccccc1)NO` [vorinostat] the “effect on cell survival” value (MDA-MB-231 cells [1]) was “discernible effects on cell survival” and the “frequency and amplitude of [Ca^2+]i oscillations” value (shortened to “frequency and amplitude”) (MDA-MB-231 cells [2]) was “did not alter the frequency and amplitude”.
For `C#Cc1cccc(Nc2ncnc3cc(OC)c(OCCCCCCC(=O)NO)cc23)c1` [CUDC-101], the “effect on cell survival” value (MDA-MB-231 cells [1]) was “discernible effects on cell survival”.
In the case of `CCCCc1nc2cc(/C=C/C(=O)NO)ccc2n1CCN(CC)CC` [pracinostat], the “effect on cell survival” value (MDA-MB-231 cells [1]) was “discernible effects on cell survival”.
In the case of `Cc1[nH]c2ccccc2c1CCNCc1ccc(/C=C/C(=O)NO)cc1` [panobinostat], the “frequency and amplitude” value (MDA-MB-231 cells [2]) was “did not alter the frequency and amplitude”.
In the case of `Cc1cc(Nc2nc(N[C@@H](C)c3ccc(F)cc3)c(C#N)cc2F)[nH]n1` [AZ960], the “effect on cell survival” value (MDA-MB-231 cells [1]) was “discernible effects on cell survival”.
`CC(/C=C/C(=O)NO)=C\[C@@H](C)C(=O)c1ccc(N(C)C)cc1` [TSA, trichostatin A] was tested, and the “effect on cell survival” value (MDA-MB-231 cells [1]) was “discernible effects on cell survival”, the pIC50 (HUVEC) was > 6.00 and 6.08 and the pIC50 (MDA-MB-231) was 6.00. The pIC50 (MEF) was > 6.00 and 6.05, the pIC50 [3] was 5.64 and the pIC50 (A549) was 5.88. For the same molecule, the pIC50 (Caco-2) was 5.52, the pIC50 (HCT-15) was 5.64 and the pIC50 (HeLa) was 6.24. The pIC50 (MCF-7) was 6.04, the pIC50 (PANC-1) was 5.85 and the pIC50 (PC-3) was 5.88. It also gave a pIC50 (SH-SY5Y) of 6.14, a pIC50 (SMMC-7721) of 5.49 and a pIC50 (T-47D) of 6.04. The “frequency and amplitude” value (MDA-MB-231 cells [2]) was “did not alter the frequency and amplitude”.
With `O=C(/C=C/c1cccc(S(=O)(=O)Nc2ccccc2)c1)NO` [belinostat] the “effect on cell survival” value (MDA-MB-231 cells [1]) was “discernible effects on cell survival”.

— PMC7797697 (Theranostics, 2021)
